Reference: US4460587A, “5-Diazacycloalkyl imidazo[1,2-c][1,3]benzodiazepines” (Ciba-Geigy Corporation, priority 1982, dated 1984)

What was measured:
[1] = tested on: learned conditioned avoidance behavior; assay: conditioned avoidance (lever press to avoid electric foot shock) in rats; format: in vivo; settings: Rattus norvegicus, oral, read-out: oral dose that disrupts avoidance behavior, e.g. decreases avoidance responses
Method: (§1) Each lever press postpones the shock for 30 seconds. Whenever the animal fails to press the lever once within said period, brief (0.5 sec.) shocks are delivered at 15 second intervals until the animal again presses the lever. Under control conditions the animals press the lever at a moderately steady rate and seldom receive more than five or six shocks during a 25-minute (rats) and up to 4-hour experimental session. Said compounds are administered to the animals 30, 90, 210 minutes prior to the experimental session, and block the learned conditioned avoidance behavior, manifested by a decrease in avoidance responding with a marked increase in shocks taken by the animal. Both the avoidance responses and failures (shocks received) are recorded separately for evaluation.

[2] = tested on: learned conditioned avoidance behavior; assay: conditioned avoidance (lever press to avoid electric foot shock) in monkeys; format: in vivo, squirrel monkeys; settings: Primates, oral, read-out: oral dose that disrupts avoidance behavior, e.g. decreases avoidance responses
Method: as §1

For `CN1CCN(C2=Nc3ccccc3Cc3nccn32)CC1` [example 1, 5-(4-methyl-1-piperazinyl)-11H-imidazo[1,2-c][1,3]benzodiazepine], the minimal effective dose [1] was ≤ 50 mg/kg and the minimal effective dose [2] was ≤ 50 mg/kg.
